{"source": "patent US20250282819A1", "about": "“MITOCHONDRIA-[…] PEPTIDE THAT CAN BE […] DELIVERED AT NANOMOLAR CONCENTRATION, AND USE THEREOF” (CAMP THERAPEUTICS INC., priority 2021, published 2025)", "key": {"HeLa cells [1]": {"test_system": "HeLa cells", "assay_type": "cell-based", "conditions": "for level of EC50 value (cell-penetrating ability): comparison of CMP3013, LR10, MPP1a, SS-31", "description": "Cell-penetrating ability was evaluated using the fluorescently-labeled versions of the dimeric bundle peptides synthesized in Example 3, and measured as EC50 values according to the method described in Experimental Example 3.\n1×10^5 HeLa cells were seeded into a 24-well plate. After 24 hours, the peptide was added to the cells and further incubation was performed for 3 hours. The incubated cells were harvested, washed with PBS, suspended in PBS, and then analyzed by fluorescence-activated cell sorting (FACS; BD Accuri, USA). The cells whose fluorescence intensity exceeds the maximum intensity of untreated cells were classified as fluorescence-positive cells."}, "HeLa cells [2]": {"test_system": "HeLa cells", "conditions": "HeLa cells pretreated 3 hours; H2O2, antimycin A, or CCCP", "description": "(§1) 2×10^4 HeLa cells were seeded in a 96-well plate 24 hours before the experiment. The cells were then stained with MitoSOX™ (Thermo Fisher Scientific, M36008; 5 μM, 10 min) or tetramethylrhodamine ethyl ester (TMRE; Sigma, 87917; 600 nM, 15 min). The cells were washed with PBS, and HBSS was added thereto. Fluorescence signal of the cells was measured with a microplate reader (TECAN) at 37° C. (MitoSox, Ex/Em=510/580 nm; TMRE, Ex/Em=525/575 nm)."}, "HeLa cells [3]": {"test_system": "HeLa cells", "test": "Co-localization with Drp1-eGFP", "assay_type": "cell-based", "conditions": "HeLa cells transfected with Drp1-eGFP"}, "HeLa cells [4]": {"test_system": "HeLa cells", "conditions": "10 or 30 nM 3 hours, then H2O2 for 1 hour", "description": "The membrane potential of mitochondria was measured according to the method described in Experimental Example 7.\nas §1"}, "HeLa cells [5]": {"test_system": "HeLa cells", "conditions": "EC50 concentration 3 hours, 0.5 mM H2O2"}, "HeLa cells [6]": {"test_system": "HeLa cells", "test": "Co-localization with endosome, lysosome and cardiolipin (NAO) markers", "assay_type": "cell-based", "conditions": "HeLa cells expressing CellLight early endosomes-GFP, 100 nM 3 hours", "description": "Next, to investigate whether mitochondrial damage affects the amount of peptide present in lysosomes, cardiolipin-specific targeting was investigated using NAO in the presence or absence of CCCP.\nFor microscopic observation, HeLa cells were cultured in glass-bottom dishes (SPL, 200350, Korea). The cells were then treated with peptides for 3 hours and stained with MitoTracker™ (Thermo Fisher Scientific, A1372, USA; 100 nM, 1 hr), nonyl acridine orange (NAO; Thermo Fisher Scientific, A1372; 100 nM, 1 hr), Hoechst 33342 ([…], 20 min), CellLight™ early endosomes-GFP (Thermo Fisher Scientific, C10586; […], 16 hr), and/or LysoTracker™ (Thermo Fisher Scientific, L7525; 50 nM, 30 min). The cells were then rinsed with PBS and HBSS was added thereto. Images of the stained cells were obtained using a microscope (Zeiss LSM 880 and ELYRA PS.1). To generate ultra-high resolution images, a structured illumination process was performed with ZEN Black software. Pearson r values were calculated by using ImageJ software."}, "HeLa cells [7]": {"test_system": "HeLa cells", "test": "Preferential binding to CCCP-damaged mitochondria, confocal microscopy", "assay_type": "cell-based", "conditions": "100 nM 3 hours, 20 μM CCCP"}, "HeLa cells [8]": {"test_system": "HeLa cells", "test": "ATP levels in damaged cells pretreated with peptide", "assay_type": "cell-based", "conditions": "HeLa cells pretreated 3 hours; H2O2, antimycin A, or CCCP", "description": "The relative ATP levels of cells were compared by fluorescence intensity according to the method described in Experimental Example 8, and mitochondrial damage was induced by treatment with two different mitochondrial damaging agents (1 μM of antimycin A or 1 mM of H2O2).\nCellular ATP levels were assessed using an ATP detection kit (Abcam, ab113849, USA) according to the manufacturer's instructions. Fluorescence luminescence was measured with a microplate reader (Promega, Glomax 96 microplate luminometer, USA)."}, "HeLa cells [9]": {"test_system": "HeLa cells", "conditions": "observed for 4 hours"}, "[10]": {"test": "Cardiolipin binding assay, NBD fluorescence with liposomes", "description": "To further validate specificity of CMP3013 for cardiolipin-rich membranes identified in Example 9, two model systems mimicking the inner mitochondrial membrane were constructed using POPC (1-palmitoyl-2-oleoyl-sn-glycero-3-phosphocholine) and POPE (1-palmitoyl-2-oleoyl-sn-glycero-3-phosphoethanolamine), and cardiolipin binding assays were performed using an NBD-labeled CMP3013 monomer (NBD-CMP3013m), according to the method described in Experimental Example 12.\nFor the association experiments, 1 μM of NBD-labeled peptide dissolved in PBS was prepared in a black 96-well plate. Liposome (POPC:POPE=2:1 or POPC:POPE=2:1, containing 10% cardiolipin) was added to the peptide until the desired concentration was achieved. The mixture of NBD-peptide and liposome was mixed well through pipetting, and then fluorescence emission of the sample was monitored (λex=467 nm, λem=536 nm).\nFor the association experiments depending on cardiolipin ratio, 1 μM of NBD-labeled peptide or C6-NBD dissolved in PBS was prepared in a black 96-well plate. Liposome (POPC:POPE=2:1, containing 0 to 20% cardiolipin) was added to the peptide until the desired concentration (5 μM) was achieved. This mixture was mixed well through pipetting and fluorescence emission of the sample was monitored (λex=467 nm, λem=536 nm).\nFor dissociation experiments, 1 μM of NBD-labeled peptide dissolved in PBS was prepared in a black 96-well plate. Liposome (POPC:POPE=2:1 or POPC:POPE=2:1, containing 10% cardiolipin) was added to the peptide until the desired concentration (100 μM) was achieved. The mixture of NBD-peptide and liposome was mixed well through pipetting and fluorescence intensity of the mixture was measured (λex=467 nm, λem=536 nm). The unlabeled peptide (acetylated peptide) was then added to the mixture and mixed well through pipetting. Incubation in the dark was performed for 10 minutes, and then changes in fluorescence intensity were monitored. Peptide addition and fluorescence measurement were repeated until the concentration of acetylated peptide reached 40 μM."}, "HeLa cells [11]": {"test_system": "HeLa cells", "test": "Relative cytotoxicity, number of cells normally attached", "conditions": "100 nM, 3 hours"}, "[12]": {"test": "SPR binding to inner membrane model on sensor chip", "description": "The surface plasmon resonance (SPR) technique was used to determine binding ability of the peptide to liposome. Specifically, an L1 sensor chip was inserted into a Biacore™ T200 SPR system (Cytiva, USA) and then liposome was injected so that the liposome binds to the sensor chip. Subsequently, 1 μM of NBD-CMP3013m peptide was injected to check the signal intensity increased by the binding of liposome and CMP3013.\nTwo types of model systems mimicking the inner mitochondrial membrane were constructed using POPC and POPE according to the method described in Experimental Example 12, and NBD-labeled CMP3013 monomer (NBD-CMP3013m) and NBD-labeled SS-31 (NBD-SS-31) were used to compare and analyze their cardiolipin binding ability."}}, "note": "Where a SMILES comes first, the peptide text is derived from it. [ ]: non-standard residue; d: D form. Cha = N[C@@H](CC1CCCCC1)C(=O)O"}
{"molecule": "AcNH-RCRLLRRLRLCR-C(O)NH2 [LR10, peptide included in the L1L, L4L, L5L, and L8L sub-libraries, additional comparison group]", "values": [{"measurement": "improvement in cell penetration rate as compared with SS-31", "setting": "HeLa cells [1]", "result": "approximately 100 fold"}, {"measurement": "level of EC50 value (cell-penetrating ability)", "setting": "HeLa cells [1]", "result": "nanomolar level of EC50 value"}]}
{"molecule": "CC(=O)N[C@@H](CC1CCCCC1)C(=O)N[C@H]1CSSC[C@@H](C(=O)N[C@@H](CCCNC(=N)N)C(N)=O)NC(=O)[C@H](CC2CCCCC2)NC(=O)[C@H](CCCNC(=N)N)NC(=O)[C@H](CCCNC(=N)N)NC(=O)[C@H](CC2CCCCC2)NC(=O)[C@H](CC(C)C)NC(=O)[C@H](CCCNC(=N)N)NC(=O)[C@@H](NC(=O)[C@H](CC2CCCCC2)NC(=O)c2ccc3c(c2)C(=O)OC32c3ccc(N(C)C)cc3Oc3cc(N(C)C)ccc32)CSSC[C@@H](C(=O)N[C@@H](CCCNC(=N)N)C(N)=O)NC(=O)[C@H](CC2CCCCC2)NC(=O)[C@H](CCCNC(=N)N)NC(=O)[C@H](CCCNC(=N)N)NC(=O)[C@H](CC2CCCCC2)NC(=O)[C@H](CC(C)C)NC(=O)[C@H](CCCNC(=N)N)NC1=O", "note": "[FL-CMP3013] (HELM PEPTIDE1{[ac].[Cha].C.R.L.[Cha].R.R.[Cha].C.R.[am]}|PEPTIDE2{[CN(C)c1ccc2c(c1)Oc1cc(N(C)C)ccc1C21OC(=O)c2cc(C(=O)[*:2])ccc21].[Cha].C.R.L.[Cha].R.R.[Cha].C.R.[am]}$PEPTIDE1,PEPTIDE2,3:R3-10:R3|PEPTIDE1,PEPTIDE2,10:R3-3:R3$$$V2.0)", "values": [{"measurement": "ROS production", "setting": "HeLa cells [2]", "result": "inhibited ROS production"}, {"measurement": "co-localization with Drp1", "setting": "HeLa cells [3]", "result": "co-localize perfectly with Drp1"}, {"measurement": "mitochondrial membrane potential", "setting": "HeLa cells [4]", "result": "increased by FL-CMP3013 treatment in a concentration-dependent manner"}, {"measurement": "ROS production inhibiting ability", "setting": "HeLa cells [5]", "result": "greatest inhibition of ROS production"}, {"measurement": "co-localization with endosomal marker", "setting": "HeLa cells [6]", "result": "less than 20%"}, {"measurement": "targeting of damaged mitochondria", "setting": "HeLa cells [7]", "result": "co-localized more with donut-shaped or bulge-shaped mitochondria"}, {"measurement": "ATP production", "setting": "HeLa cells [8]", "result": "resumed ATP production"}, {"measurement": "cell survival after CCCP", "setting": "HeLa cells [9]", "result": "survived even after 4 hours"}]}
{"molecule": "NBD-NH-XCRLXRRXCR-C(O)NH2 [NBD-CMP3013m]", "values": [{"measurement": "faster binding to 10% CL liposome versus POPC/POPE liposome alone", "setting": "[10]; 1 μM NBD-labeled peptide", "result": "approximately 10 fold"}, {"measurement": "greater final fluorescence intensity with 10% CL liposome versus POPC/POPE liposome alone", "setting": "[10]; 1 μM NBD-labeled peptide", "result": 2, "unit": "fold"}]}
{"molecule": "X(dR)XKX(dR)XK [MPP1a, reference compound]", "values": [{"measurement": "level of EC50 value (cell-penetrating ability)", "setting": "HeLa cells [1]", "result": "micromolar level of EC50 value"}]}
{"molecule": "CC(=O)N[C@@H](CC1CCCCC1)C(=O)N[C@H]1CSSC[C@@H](C(=O)N[C@@H](CCCNC(=N)N)C(N)=O)NC(=O)[C@H](CC(C)C)NC(=O)[C@H](CCCNC(=N)N)NC(=O)[C@H](CCCNC(=N)N)NC(=O)[C@H](CC2CCCCC2)NC(=O)[C@H](CC2CCCCC2)NC(=O)[C@H](CCCNC(=N)N)NC(=O)[C@@H](NC(=O)[C@H](CC2CCCCC2)NC(C)=O)CSSC[C@@H](C(=O)N[C@@H](CCCNC(=N)N)C(N)=O)NC(=O)[C@H](CC(C)C)NC(=O)[C@H](CCCNC(=N)N)NC(=O)[C@H](CCCNC(=N)N)NC(=O)[C@H](CC2CCCCC2)NC(=O)[C@H](CC2CCCCC2)NC(=O)[C@H](CCCNC(=N)N)NC1=O", "note": "[CMP3011] (HELM PEPTIDE1{[ac].[Cha].C.R.[Cha].[Cha].R.R.L.C.R.[am]}|PEPTIDE2{[ac].[Cha].C.R.[Cha].[Cha].R.R.L.C.R.[am]}$PEPTIDE1,PEPTIDE2,3:R3-10:R3|PEPTIDE1,PEPTIDE2,10:R3-3:R3$$$V2.0)", "values": [{"measurement": "relative cytotoxicity", "setting": "HeLa cells [11]", "result": "relatively highest cytotoxicity"}]}
{"molecule": "XCRLXRRXCR (Ac-[Cha]CRL[Cha]RR[Cha]CR-NH2; cysteine pairing not given here) [CMP3013m, acetyl-capped monomeric peptide, X = Cha]", "values": [{"measurement": "dissociation from the cardiolipin-containing membrane", "setting": "[12]", "result": "did not dissociate from the cardiolipin-containing membrane"}, {"measurement": "greater response unit (RU) for membrane containing 10% cardiolipin versus POPC/POPE membrane alone", "setting": "[12]; 1 μM peptide", "result": "approximately 50%"}, {"measurement": "binding to pathogenically altered membrane (5 to 10% cardiolipin, 10% DLCL)", "setting": "[10]; POPC:POPE (2:1) liposomes", "result": "can bind to a cardiolipin-damaged membrane"}, {"measurement": "slower dissociation from CL-containing membrane than from cardiolipin-free membrane", "setting": "[10]; competition assay with unlabeled peptide", "result": "approximately 10 fold"}, {"measurement": "binding capacity for liposome membranes, CMP3013m versus SS-31", "setting": "[10]; liposomes with cardiolipin or di-lysocardiolipin", "result": "better binding capacity for all types of membranes"}]}
